Test results as given in patent US10080812B2, “Radioactive iodine labeled pyrido[1,2-a]benzoimidazole derivative compound” (priority 2015, dated 2018).
“And” between values parts separate entries of the source, which are not always exact repeats. Equal entries are not always repeated.

Tests used:
[1] = Comparison of intracerebral kinetics in mice; format: in vivo, ddY male mice; settings: for radioactivity in the brain: i.v. tail vein; for Brain2 min/60 min: ratio of radioactivity in the brain between 2 and 60 min after administration
Description: (§1) Each of [^125I]BIP-1 to -4 obtained by the method shown in Example 9 was diluted with saline containing 10 vol % ethanol and 0.1 vol % Tween 80. Each of [^125I]BIP-1 to -4 was administered to a group of 5-week-old ddY male mice (26 to 28 g; each group involved 5 mice) from the tail veins thereof at 25.0 to 37.5 kBq (100 μL) per mouse. After 2, 10, 30, or 60 minutes, the mice were slaughtered. After blood collection, the brains were taken out, and their weights and radioactivity were measured. As for [^125I]BIP-3, the principal organs were also excised, and their weights and radioactivity were measured.

[2] = Log P value measurement (1-octanol/phosphate buffer); format: physicochemical; settings: 1-octanol / 0.1 mol/L phosphate buffer solution pH 7.4
Description: Each of [^125I]BIP-1 to -4 (125 kBq) obtained by the method shown in Example 9 was added to a centrifuge tube containing 1-octanol (3.00 mL) and a 0.1 mol/L phosphate buffer solution (pH 7.4, 3.00 mL), vortexed for 2 minutes, and then centrifuged at 4,000×g for 10 minutes. 500 μL of a solution was collected from each layer, and the radioactivity thereof was then measured. A partition coefficient was determined from the 1-octanol/phosphate buffer solution ratio of radioactivity.

tau = assay: In vitro autoradiography using autopsied brain tissue sections of an Alzheimer's disease patient (temporal lobe); format: binding, human; settings: for radioactivity accumulation in the brain gray matter of the temporal lobe / binding affinity for tau: AD brain section, 370 kBq/mL, 2 h room temperature; for nonspecific binding to the brain white matter: AD brain sections; for autoradiography images compared with [125I]BIP-1 and [125I]BIP-2: temporal and frontal lobe sections
Description: (§2) Autopsied brain tissue sections of an Alzheimer's disease (AD) patient (sections from a frontal lobe site and a temporal lobe site, 6 μm) were used, which were provided from Graduate School of Medicine, Kyoto University. Deparaffinization treatment was performed by washing with xylene (15 min×2), ethanol (1 min×2), a 90 vol % aqueous ethanol solution (1 min×1), an 80 vol % aqueous ethanol solution (1 min×1), a 70 vol % aqueous ethanol solution (1 min×1), and purified water (2.5 min×2). A 10 vol % or 50 vol % aqueous ethanol solution of each of [^125I]BIP-1 to -4 (370 kBq/mL) obtained by the method shown in Example 9 was added thereto, and the tissue sections were incubated at room temperature for 2 hours. The tissue sections were washed with a 50 vol % aqueous ethanol solution (2 hr×1), then exposed to an imaging plate (BAS-SR2025 manufactured by Fujifilm Corp.) for 12 hours, and analyzed using a bioimaging analyzer (bioimaging analyzer BAS-5000 manufactured by Fujifilm Corp.). Multi Gauge manufactured by Fujifilm Corp. was used in quantitative analysis.
Senile plaque (SP) and neurofibrillary tangle (NFT) were stained using sections near the brain sections used in autoradiography. An anti-Aβ1-42 monoclonal antibody (BC05, manufactured by Wako Pure Chemical Industries, Ltd.) was used as a primary antibody in the immunostaining of SP, and an anti-phosphorylated tau monoclonal antibody (AT8, manufactured by Thermo Fisher Scientific Inc.) was used as an antibody in the immunostaining of NFT. Deparaffinization treatment was performed by washing with xylene (15 min×2), ethanol (1 min×2), a 90 vol % aqueous ethanol solution (1 min×1), an 80 vol % aqueous ethanol solution (1 min×1), a 70 vol % aqueous ethanol solution (1 min×1), and purified water (2.5 min×2). The antigens were retrieved by autoclaving (15 min) in a 0.01 mol/L citrate buffer solution (pH 6.0) and formic acid treatment (5 min). The tissue sections were washed with running water (5 min) and then washed with PBS-Tween 20 (2 min×1). The tissue sections were reacted with primary antibody solutions at room temperature for 1 hour and then washed with PBS-Tween 20 (5 min×3). The tissue sections were reacted with Histofine Simple Stain MAX-PO (MULTI) (manufactured by Nichirei Biosciences Inc.) at room temperature for 30 minutes and then washed with PBS-Tween 20 (3 min×3) and TBS (5 min×1). Finally, the tissue sections were reacted with a DAB solution at room temperature for 1 minute. The tissue sections were washed with distilled water (1 min×1) to terminate the reaction. The brain tissue sections were mounted on slides and then observed under a microscope (BZ-9000 manufactured by Keyence Corporation).

amyloid β protein (Aβ) = biological target: T1, amyloid β protein (Aβ) (Homo sapiens, UniProt P05067); assay: In vitro autoradiography using autopsied brain tissue sections of an Alzheimer's disease patient (frontal lobe); format: binding; settings: for radioactivity accumulation in the frontal lobe section / binding affinity for the amyloid β protein (Aβ): AD brain section, 370 kBq/mL, 2 h room temperature
T1 construct: from tissue; host or cells: autopsied AD patient brain, frontal lobe, 6 µm paraffin sections (Graduate School of Medicine, Kyoto University)
Description: as §2
Senile plaque (SP) and neurofibrillary tangle (NFT) were stained using sections near the brain sections used in autoradiography. An anti-Aβ1-42 monoclonal antibody (BC05, manufactured by Wako Pure Chemical Industries, Ltd.) was used as a primary antibody in the immunostaining of SP, and an anti-phosphorylated tau monoclonal antibody (AT8, manufactured by Thermo Fisher Scientific Inc.) was used as an antibody in the immunostaining of NFT. Deparaffinization treatment was performed by washing with xylene (15 min×2), ethanol (1 min×2), a 90 vol % aqueous ethanol solution (1 min×1), an 80 vol % aqueous ethanol solution (1 min×1), a 70 vol % aqueous ethanol solution (1 min×1), and purified water (2.5 min×2). The antigens were retrieved by autoclaving (15 min) in a 0.01 mol/L citrate buffer solution (pH 6.0) and formic acid treatment (5 min). The tissue sections were washed with running water (5 min) and then washed with PBS-Tween 20 (2 min×1). […]

[3] = Stability evaluation in plasma; format: in vitro ADME, ddY mouse; settings: 37° C., 1 hour
Description: Blood was collected from the heart of a ddY mouse (5 weeks old, body weight: 25 to 28 g) under anesthesia with isoflurane. The collected blood was fractionated by centrifugation at 4000×g for 10 minutes to recover a supernatant. [^125I]BIP-3 obtained by the method shown in Example 9 (188 kBq, 10.0 μL, ethanol solution) and the mouse plasma sample (200 μL) were mixed. The mixture was incubated at 37° C. for 1 hour, and acetonitrile (400 μL) was added thereto, followed by fractionation by centrifugation at 4000×g for 10 minutes. The supernatant was recovered, treated with Cosmonice Filter (S) (0.45 μm, 4 mm) (Nacalai Tesque, Inc.), and then analyzed by reverse phase HPLC. Analytical conditions for HPLC were the same as the conditions used in Example 9.

[4] = In vivo radioactivity distribution experiment; set-up: species or system ddY male mice; settings: mouse; for radioactivity in Blood / radioactivity in Brain / radioactivity in Heart / radioactivity in Intestine / radioactivity in Kidneys / radioactivity in Liver / radioactivity in Lungs / radioactivity in Pancreas / radioactivity in Spleen / radioactivity in Stomach / radioactivity in Thyroid gland: i.v.
Description: as §1

[5] = mouse, 2 min after administration
[6] = mouse, 10 min after administration
[7] = mouse, 30 min after administration
[8] = mouse, 60 min after administration

T1 sequence (P05067 672-713 limits assumed): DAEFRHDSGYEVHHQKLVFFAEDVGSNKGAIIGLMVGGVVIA

## [125I]c1ccc2c(c1)nc1cc(-c3ccccc3)ccn12 [[^125I]BIP-1, 7-[^125I]iodo-3-phenylbenzo[4,5]imidazo[1,2-a]pyridine]
[1]; [5]
  radioactivity in the brain: 3.51 % ID/g
[1]; [6]
  radioactivity in the brain: 2.14 % ID/g
[1]; [7]
  radioactivity in the brain: 0.65 % ID/g
[1]; [8]
  radioactivity in the brain: 0.23 % ID/g
[1]
  Brain2 min/60 min: 15.3
[2]
  Log P: 2.64
tau; temporal lobe
  radioactivity accumulation in the brain gray matter of the temporal lobe / binding affinity for tau: have binding affinity for tau
tau
  nonspecific binding to the brain white matter: low nonspecific binding
Amyloid β protein (Aβ)
  radioactivity accumulation in the frontal lobe section / binding affinity for the amyloid β protein (Aβ): low

## [125I]c1ccc(-c2ccn3c(c2)nc2ccccc23)cc1 [[^125I]BIP-2, 3-(4-[^125I]iodophenyl)benzo[4,5]imidazo[1,2-a]pyridine]
[1]; [5]
  radioactivity in the brain: 2.73 % ID/g
[1]; [6]
  radioactivity in the brain: 1.73 % ID/g
[1]; [7]
  radioactivity in the brain: 0.57 % ID/g
[1]; [8]
  radioactivity in the brain: 0.26 % ID/g
[1]
  Brain2 min/60 min: 10.4
[2]
  Log P: 2.61
tau; temporal lobe
  radioactivity accumulation in the brain gray matter of the temporal lobe / binding affinity for tau: have binding affinity for tau
tau
  nonspecific binding to the brain white matter: low nonspecific binding
Amyloid β protein (Aβ)
  radioactivity accumulation in the frontal lobe section / binding affinity for the amyloid β protein (Aβ): low

## [125I]c1ccc2c(c1)nc1ccccn12 [[^125I]BIP-3, 7-[^125I]iodobenzo[4,5]imidazo[1,2-a]pyridine]
[3]
  stability in mouse plasma (reverse phase HPLC): only the peak of the parent compound was detected
[1]; [5]
  radioactivity in the brain: 4.74 % ID/g
[1]; [6]
  radioactivity in the brain: 0.65 % ID/g
[1]; [7]
  radioactivity in the brain: 0.12 % ID/g
[1]; [8]
  radioactivity in the brain: 0.06 % ID/g
[1]; mouse, i.v., 2-60 min
  intracerebral kinetics: favorable intracerebral kinetics
[1]
  Brain2 min/60 min: 79.0
[4]; 2 min
  radioactivity in Blood: 5.20 (0.44) % ID/g
  radioactivity in Brain: 4.74 (0.57) % ID/g
  radioactivity in Heart: 7.66 (1.21) % ID/g
  radioactivity in Intestine: 5.41 (0.62) % ID/g
  radioactivity in Kidneys: 23.7 % ID/g and 23.7 (2.44) % ID/g
  radioactivity in Liver: 19.9 % ID/g and 19.9 (1.39) % ID/g
  radioactivity in Lungs: 29.7 (4.63) % ID/g
  radioactivity in Pancreas: 5.36 (0.91) % ID/g
  radioactivity in Spleen: 4.76 (0.39) % ID/g
  radioactivity in Stomach: 2.70 (0.56) % ID
  radioactivity in Thyroid gland: 0.09 (0.03) % ID
[4]; 10 min
  radioactivity in Blood: 2.94 (0.41) % ID/g
  radioactivity in Brain: 0.65 (0.07) % ID/g
  radioactivity in Heart: 1.66 (0.75) % ID/g
  radioactivity in Intestine: 11.6 (2.43) % ID/g
  radioactivity in Kidneys: 12.2 (1.55) % ID/g
  radioactivity in Liver: 14.4 (2.14) % ID/g
  radioactivity in Lungs: 6.32 (1.16) % ID/g
  radioactivity in Pancreas: 1.49 (0.47) % ID/g
  radioactivity in Spleen: 1.34 (0.28) % ID/g
  radioactivity in Stomach: 6.73 (1.64) % ID
  radioactivity in Thyroid gland: 0.06 (0.02) % ID
[4]; 30 min
  radioactivity in Blood: 1.30 (0.16) % ID/g
  radioactivity in Brain: 0.12 (0.01) % ID/g
  radioactivity in Heart: 0.97 (0.26) % ID/g
  radioactivity in Intestine: 21.4 (5.69) % ID/g
  radioactivity in Kidneys: 10.3 (5.11) % ID/g
  radioactivity in Liver: 6.29 (0.45) % ID/g
  radioactivity in Lungs: 1.91 (0.29) % ID/g
  radioactivity in Pancreas: 0.78 (0.47) % ID/g
  radioactivity in Spleen: 0.58 (0.16) % ID/g
  radioactivity in Stomach: 5.34 (1.26) % ID
  radioactivity in Thyroid gland: 0.13 (0.03) % ID
[4]; 60 min
  radioactivity in Blood: 1.11 (0.53) % ID/g
  radioactivity in Brain: 0.06 (0.01) % ID/g
  radioactivity in Heart: 0.83 (0.24) % ID/g
  radioactivity in Intestine: 29.4 % ID/g and 29.4 (7.49) % ID/g
  radioactivity in Kidneys: 8.99 (4.47) % ID/g
  radioactivity in Liver: 5.25 (0.95) % ID/g
  radioactivity in Lungs: 1.45 (0.23) % ID/g
  radioactivity in Pancreas: 0.75 (0.30) % ID/g
  radioactivity in Spleen: 0.71 (0.11) % ID/g
  radioactivity in Stomach: 4.42 (2.43) % ID
  radioactivity in Thyroid gland: 0.22 % ID and 0.22 (0.03) % ID
[4]; up to 60 min after administration
  deiodination in living body (from thyroid gland uptake): marked deiodination does not occur
[2]
  Log P: 3.22
tau
  autoradiography images compared with [125I]BIP-1 and [125I]BIP-2: images equivalent to [^125I]BIP-1 and [^125I]BIP-2
tau; temporal lobe sites e-j, compared with frontal lobe
  radioactivity accumulation to the temporal lobe (quantitative analysis): higher radioactivity accumulation
tau; temporal lobe, AT8 and BC05 immunostaining
  radioactivity accumulation on temporal lobe section compared with immunostaining of tau and Aβ: consistent with the accumulation of tau
Amyloid β protein (Aβ); frontal lobe sites a-d, only Aβ accumulates
  radioactivity accumulation to the frontal lobe (quantitative analysis): low radioactivity accumulation

## [125I]c1ccn2c(c1)nc1ccccc12 [[^125I]BIP-4, 3-[^125I]iodobenzo[4,5]imidazo[1,2-a]pyridine]
[1]; [5]
  radioactivity in the brain: 2.37 % ID/g
[1]; [6]
  radioactivity in the brain: 0.36 % ID/g
[1]; [7]
  radioactivity in the brain: 0.09 % ID/g
[1]; [8]
  radioactivity in the brain: 0.06 % ID/g
[1]
  Brain2 min/60 min: 39.5
[2]
  Log P: 2.35
tau
  autoradiography images compared with [125I]BIP-1 and [125I]BIP-2: images equivalent to [^125I]BIP-1 and [^125I]BIP-2
